Measurements reported in paper PMC8535469, “Insight into the Binding and Hydrolytic Preferences of hNudt16 Based on Nucleotide Diphosphate Substrates” (International Journal of Molecular Sciences, 2021).
Read-outs that look alike come from different tables or passages of the source.

How the values were obtained:
hNudt16E76Q [1] = biological target: T1, hNudt16E76Q (Homo sapiens, UniProt Q96DE0, E76Q); experiment: Thermal stability of hNudt16E76Q with ligands, dye-free nanoDSF; format: binding; details: for Tm, nanoDSF (Dye-Free) / ∆Tm, nanoDSF (Dye-Free): 5 µM hNudt16E76Q, 20 mM MgCl2, 0.5 mM ligand; for ∆Tm, nanoDSF (Dye-Free): relative to apo
T1 construct: 4xHis (four added histidines); made in house; host or cells: E. coli Rosetta 2 (DE3), pET16b
Experimental: (§1) Protein thermal stability in the presence of various ligands was measured using two DSF methods: assays with SYPRO orange dye and dye-free assays. DSF assays with SYPRO orange dye were performed at specific ligand concentrations for each protein–ligand pair. This measurement was performed as described in Section 4.6.1, with a constant MgCl2 concentration of 20 mM and a concentration of the tested ligand maintained at 0.5 mM. DSF dye-free measurements were performed using a Prometheus NT.48 nanoDSF device (NanoTemper Technologies, München, Germany). The composition of the samples was identical to that in the DSF with SYPRO orange dye measurements, without the addition of any dye. […] The measurements were performed at a single ligand concentration for all ligands. After 10 min of pre-incubation, the samples were loaded into standard capillaries (NanoTemper Technologies, München, Germany). […] We fitted the melting temperatures (Tm) globally for at least three independent experiments (but separately for different DSF methods).

hNudt16 [2] = biological target: T2, hNudt16 (Homo sapiens, UniProt Q96DE0); experiment: Enzymatic hydrolysis catalyzed by hNudt16, products quantified by HPLC; format: biochemical; design: 4xHis (four added histidines); made in house; details: 20 µM substrate, 37 °C; for Hydrolysis Products / Hydrolysis Rate, v/[E]0 (hydrolyzed substrate per minute per [enzyme] µM) / Hydrolysis Rate, v/µg (hydrolyzed substrate per minute per enzyme µg): pH 7.9, 6 mM MgCl2, nd = hydrolysis products not detected
Experimental: Enzymatic hydrolysis catalyzed by hNudt16 was performed at 37 °C in 40 mM Tris buffer (pH 7.9) containing 100 mM NaCl, 6 mM MgCl2, and 2 mM DTT. The concentration of the investigated dinucleotides and mononucleotides was 20 µM in the reaction mixture.
(§2) The hydrolytic susceptibility of the compounds was studied using HPLC. Before each experiment, 1 mL of buffer solution containing the analyte was incubated at 37 °C for 10 min. The hydrolysis process was initiated by the addition of hNudt16. To analyze the reaction progress, 200-µL aliquots of the reaction mixture were withdrawn and incubated at 96 °C for 5 min to stop the reaction through heat inactivation of the enzyme. The samples were then subjected to an HPLC system (Agilent 1200 series, Agilent Technologies, California, USA) with a reverse-phase Supelcosil LC-18-T column and UV/VIS detector. The substrates and hydrolysis products were eluted at 20 °C with a linear gradient of methanol in 0.1 M KH2PO4 (from 0% to 40%) over 15 min at a flow rate of 1.0 mL/min. Changes in the absorbance at 260 nm were continuously monitored during the analysis. Hydrolysis products were identified by comparing their retention times with those of the reference samples. The extent of decapping, determined as the percentage of the hydrolyzed substrate, was calculated using the area under the chromatographic peak of the respective compounds.

hNudt16E76Q [3] = biological target: T1, hNudt16E76Q; experiment: Thermal stability of hNudt16E76Q with ligands, DSF with SYPRO Orange; format: binding; details: 5 µM hNudt16E76Q, 20 mM MgCl2, 0.5 mM ligand, 4× SYPRO Orange; for ∆Tm, DSF (with SYPRO Orange): relative to apo
Experimental: The protein thermal stability of wild-type hNudt16 and all tested mutants in the presence of increasing Mg^2+ ion concentration was measured using DSF with SYPRO orange dye on CFX RT-PCR (Bio-Rad, Hercules, CA, USA). This method is based on the change in fluorescence of the SYPRO orange dye in an aqueous buffer, which is strongly quenched, while its binding to the exposed hydrophobic regions of thermally unfolded protein results in an increased fluorescence. The optimal concentrations of protein, SYPRO orange dye, and buffer composition, in particular ion content, were determined. The samples were prepared and measured in clear 96-well multiplate PCR plates for RT-PCR (Bio-Rad, Hercules, CA, USA). […] The individual components of the solution were added in equal volumes to each well, with a final sample volume of 25 μL/well. The samples were gently mixed, and the 96-well plate was covered with optically clear PCR sealing tape (Bio-Rad, Hercules, CA, USA) to prevent evaporation. […] The data processing procedure was performed using Bio-Rad CFX Manager (version 1.6.541.1028), and melting point temperatures were calculated as the minimum of the first derivative plot.
as §1

hNudt16 EE-QQ = biological target: T3, hNudt16 EE-QQ (Homo sapiens, UniProt Q96DE0, E79Q/E80Q); experiment: Hydrolytic properties of EE-QQ mutant tested by HPLC; format: biochemical
T3 construct: 4xHis (four added histidines); made in house; host or cells: E. coli Rosetta 2 (DE3), pET16b
Experimental: as §2

hNudt16 EE-KK = biological target: T4, hNudt16 EE-KK (Homo sapiens, UniProt Q96DE0, E79K/E80K); experiment: Hydrolytic properties of EE-KK mutant tested by HPLC; format: biochemical
T4 construct: 4xHis (four added histidines); made in house; host or cells: E. coli Rosetta 2 (DE3), pET16b
Experimental: as §2

hNudt16E76Q [4] = biological target: T1, hNudt16E76Q; experiment: Microscale thermophoresis (MST) binding, two independent binding sites model; details: for ΔGdiss1 (for Kd1): calculated as −RTlnKd from MST Kd1; for ΔGdiss2 (for Kd2): calculated as −RTlnKd from MST Kd2
Experimental: Binding constants for protein–ligand pairs were established using the MST method. The hNudt16 E76Q was labeled with RED-tris-NTA 2nd Generation dye (Monolith HIS-tag labeling Kit, NanoTemper Technologies, München, Germany) according to the manufacturer’s instructions. Measurements were carried out in a wide range of ligand concentrations, selected after preliminary tests for each of the ligands. The results obtained were used to determine of binding parameters for a given ligand. Each MST measurement consisted of a series of 16 serial 1:2 dilutions of the ligand, and was performed at a constant dye-labeled protein concentration of 50 nM. After 10 min of pre-incubation, dye-labeled protein–ligand samples were manually loaded into Monolith™ NT.115 Premium Capillaries (NanoTemper Technologies, München, Germany) and analyzed using the Monolith NT.115 (NanoTemper Technologies). […] Analysis was performed using Origin package (OriginLab, Northampton, MA, USA) and dissociation constants were fitted globally for a series of at least six MST pseudo-titration experiments for each ligand. Up to 10 replicates were performed for some ligands.
For the dissociation constants obtained, we also calculated the free energy associated with the dissociation of the complex ΔGdiss according to the equation: ΔGdiss=−RTlnKd.

hNudt16E76Q [5] = biological target: T1, hNudt16E76Q; experiment: Hydrolytic properties of E76Q mutant tested by HPLC; format: biochemical
Experimental: as §2

wild-type hNudt16 = biological target: T5, wild-type hNudt16 (Homo sapiens, UniProt Q96DE0); experiment: Thermal stability of wild-type hNudt16 with ligands, nanoDSF; format: binding; details: 20 mM MgCl2, same conditions as E76Q
T5 construct: 4xHis (four added histidines); made in house
Experimental: This allow us to conclude that there is no negative effect of the mutation on protein stabilization by studied compounds.
Protein thermal stability in the presence of various ligands was measured using two DSF methods: assays with SYPRO orange dye and dye-free assays. DSF assays with SYPRO orange dye were performed at specific ligand concentrations for each protein–ligand pair. This measurement was performed as described in Section 4.6.1, with a constant MgCl2 concentration of 20 mM and a concentration of the tested ligand maintained at 0.5 mM. DSF dye-free measurements were performed using a Prometheus NT.48 nanoDSF device (NanoTemper Technologies, München, Germany). The composition of the samples was identical to that in the DSF with SYPRO orange dye measurements, without the addition of any dye. The conditions during measurements were as follows: 5 µM protein, 20 mM MgCl2, 10 mM HEPES pH 7.9, 150 mM NaCl, 5% glycerol, 1 mM TCEP, and 0.5 mM ligand. The measurements were performed at a single ligand concentration for all ligands. After 10 min of pre-incubation, the samples were loaded into standard capillaries (NanoTemper Technologies, München, Germany). During the measurement, the samples were heated in a temperature range of 20–95 °C at a rate of 1 °C/min, and the measurements were performed with an excitation power of 30%. All of the collected data measured with using the above two DSF methods were analyzed according to the two-state transition numerical model described previously, using the Marquardt algorithm implemented in the Origin 2019 package (OriginLab, Northampton, MA, USA). We fitted the melting temperatures (Tm) globally for at least three independent experiments (but separately for different DSF methods).

hNudt16 [6] = biological target: T2, hNudt16; details: cited from earlier work
[7] = second, weaker binding site, read-out: Kd2
[8] = stronger binding site, 50 nM dye-labeled protein, read-out: Kd1

T5 sequence (Q96DE0 whole entry): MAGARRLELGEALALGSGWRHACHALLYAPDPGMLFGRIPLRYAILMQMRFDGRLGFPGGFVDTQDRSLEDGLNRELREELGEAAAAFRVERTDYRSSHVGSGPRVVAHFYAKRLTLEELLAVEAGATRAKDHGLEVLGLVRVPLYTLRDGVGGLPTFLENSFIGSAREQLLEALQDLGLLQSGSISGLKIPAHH
T2 sequence (Q96DE0 whole entry): as above
T1 sequence (Q96DE0 whole entry E76Q): as the sequence (Q96DE0 whole entry) above, with E76Q counted along it
T4 sequence (Q96DE0 whole entry E79K/E80K): as the sequence (Q96DE0 whole entry) above, with E79K, E80K counted along it
T3 sequence (Q96DE0 whole entry E79Q/E80Q): as the sequence (Q96DE0 whole entry) above, with E79Q, E80Q counted along it

| Tm, nanoDSF (Dye-Free) (hNudt16E76Q [1]) [°C] | ∆Tm, nanoDSF (Dye-Free) (hNudt16E76Q [1]) [°C] | ΔTm relative to the apo form, both DSF and nanoDSF (hNudt16E76Q [1]; 0.5 mM ligand, stated for both types of measurements) | Hydrolysis Products (hNudt16 [2]) | Hydrolysis Rate, v/[E]0 (hydrolyzed substrate per minute per [enzyme] µM) (hNudt16 [2]) | Hydrolysis Rate, v/µg (hydrolyzed substrate per minute per enzyme µg) (hNudt16 [2]) [µM/min/µg] | Tm, DSF (with SYPRO Orange) (hNudt16E76Q [3]) [°C] | ∆Tm, DSF (with SYPRO Orange) (hNudt16E76Q [3]) [°C] | ΔGdiss1 (for Kd1) (hNudt16E76Q [4]) [kcal/mol] | ΔGdiss2 (for Kd2) (hNudt16E76Q [4]) [kcal/mol] | Kd (hNudt16E76Q [4]; [7]) [nM] | Kd (hNudt16E76Q [4]; [8]) [nM] | Compound | Hydrolytic activity of EE-QQ mutant (hNudt16 EE-QQ) | Hydrolytic activity of EE-KK mutant (hNudt16 EE-KK) | Hydrolytic activity of E76Q mutant (hNudt16E76Q [5]) | Susceptibility to hydrolysis by hNudt16 (in words) (hNudt16 [2]; HPLC) | Tm, wild-type hNudt16, nanoDSF (wild-type hNudt16) [°C] | ΔTm, wild-type hNudt16, nanoDSF (wild-type hNudt16) [°C] | Km (hNudt16 [6]) [µM] |
| --- | --- | --- | --- | --- | --- | --- | --- | --- | --- | --- | --- | --- | --- | --- | --- | --- | --- | --- | --- |
| 83.1 ± 0.1 | 18.0 ± 0.1 | 17.5–18.0 °C | GMP | 5454.5 ± 436.3 µM/min/[E]0 | 227.27 ± 18.25 | 81.2 ± 0.1 | 17.5 ± 0.1 | 9.708 | 7.89 | 1600 ± 400 | 73 ± 23 | Nc1nc2c(ncn2[C@@H]2O[C@H](COP(=O)(O)OP(=O)(O)OC[C@H]3O[C@@H](n4cnc5c(=O)[nH]c(N)nc54)[C@H](O)[C@@H]3O)[C@@H](O)[C@H]2O)c(=O)[nH]1 [GppG] | none of the mutants exhibited hydrolytic activity | none of the mutants exhibited hydrolytic activity | none of the mutants exhibited hydrolytic activity | – | – | – | – |
| 69.1 ± 0.1 | 4.0 ± 0.1 | – | – | – | – | 68.0 ± 0.1 | 4.3 ± 0.1 | – | – | – | – | Nc1nc2c(ncn2[C@@H]2O[C@H](COP(=O)(O)O)[C@@H](O)[C@H]2O)c(=O)[nH]1 [GMP, Guanosine monophosphate] | – | – | – | – | 70.8 ± 0.1 | 3.5 ± 0.1 | – |
| 80.2 ± 0.1 | 15.2 ± 0.1 | – | m^7GMP + GMP | 722.6 ± 68.6 µM/min/[E]0 | 30.11 ± 2.81 | 78.2 ± 0.1 | 14.4 ± 0.1 | 9.063 | 6.154 | 30200 ± 2500 | 220 ± 87 | C[n+]1cn([C@@H]2O[C@H](COP(=O)([O-])OP(=O)(O)OC[C@H]3O[C@@H](n4cnc5c(=O)[nH]c(N)nc54)[C@H](O)[C@@H]3O)[C@@H](O)[C@H]2O)c2nc(N)[nH]c(=O)c21 [m^7GppG] | – | – | none of the mutants exhibited hydrolytic activity | – | – | – | – |

| Compound | Tm, nanoDSF (Dye-Free) (hNudt16E76Q [1]) [°C] | ∆Tm, nanoDSF (Dye-Free) (hNudt16E76Q [1]) [°C] | ΔTm relative to the apo form, both DSF and nanoDSF (hNudt16E76Q [1]; 0.5 mM ligand, stated for both types of measurements) | Hydrolysis Products (hNudt16 [2]) | Hydrolysis Rate, v/[E]0 (hydrolyzed substrate per minute per [enzyme] µM) (hNudt16 [2]) | Hydrolysis Rate, v/µg (hydrolyzed substrate per minute per enzyme µg) (hNudt16 [2]) [µM/min/µg] | Tm, DSF (with SYPRO Orange) (hNudt16E76Q [3]) [°C] | ∆Tm, DSF (with SYPRO Orange) (hNudt16E76Q [3]) [°C] | ΔGdiss1 (for Kd1) (hNudt16E76Q [4]) [kcal/mol] | ΔGdiss2 (for Kd2) (hNudt16E76Q [4]) [kcal/mol] | Kd (hNudt16E76Q [4]; [7]) [nM] | Kd (hNudt16E76Q [4]; [8]) [nM] | Hydrolytic activity of EE-QQ mutant (hNudt16 EE-QQ) | Hydrolytic activity of EE-KK mutant (hNudt16 EE-KK) | Hydrolytic activity of E76Q mutant (hNudt16E76Q [5]) | Susceptibility to hydrolysis by hNudt16 (in words) (hNudt16 [2]; HPLC) | Tm, wild-type hNudt16, nanoDSF (wild-type hNudt16) [°C] | ΔTm, wild-type hNudt16, nanoDSF (wild-type hNudt16) [°C] | Km (hNudt16 [6]) [µM] |
| --- | --- | --- | --- | --- | --- | --- | --- | --- | --- | --- | --- | --- | --- | --- | --- | --- | --- | --- | --- |
| Adenosine diphosphate ribose [ADPr] | 66.0 ± 0.1 | 0.9 ± 0.1 | – | – | – | – | 63.6 ± 0.1 | −0.1 ± 0.1 | – | ≤2.32 | – | – | – | – | – | resistant to hydrolytic cleavage | 68.1 ± 0.1 | 0.9 ± 0.1 | ~1000 |
